The record followed here is patent US5750574A, “Fluorinated N-arylmethylamino derivatives of cyclobutene-3,4-diones” (American Home Products Corporation, priority 1997, dated 1998).

The structures appear in SMILES notation.

The test system of one test is isolated rat bladder strips (smooth muscle). Nature of the test: Inhibition of contractions in isolated rat bladder strips. Further details: species or system Sprague-Dawley rat. The following applies: 30 μM, 15 mM KCl-enhanced contractions, read-out: Percent inhibition at 30 μM (footnote a). The protocol: The smooth muscle relaxing activity of the compounds of this invention was established in accordance with standard pharmaceutically accepted test procedures with representative compounds as follows:
Sprague-Dawley rats (150-200 g) are rendered unconscious by CO2 asphyxiation and then euthanized by cervical dislocation. The bladder is removed into warm (37° C.) physiological salt solution (PSS) of the following composition (mM): NaCl, 118.4; KCl, 4.7; CaCl2, 2.5; […]; NaHCO3, 24.9; KH2 PO4, 1.2; glucose, 11.1; EDTA, 0.023; gassed with 95% O2; […]; pH 7.4 The bladder is opened and then cut into strips 1-2 mm in width and 7-10 mm in length. The strips are subsequently suspended in a 10 mL tissue bath under an initial resting tension of 1.5 g. The strips are held in place by two surgical clips one of which is attached to a fixed hook while the other is attached to an isometric force transducer. […] The carbachol is then washed out and the tissue allowed to relax to its resting level of activity. Following a further 30 min. period of recovery an additional 15 mM KCl are introduced into the tissue bath. This increase in KCl concentration results in a large increase in the amplitude of spontaneous contractions (and initiation of contractions in previously quiescent strips) superimposed upon a small increase in basal tone. Following stabilization of this enhanced level of contractile activity, incremental increases in the concentration of test compound or vehicle are introduced into the tissue bath. Contractile activity is measured for each compound or vehicle concentration during the last minute of a 30 minute challenge.
The isometric force developed by the bladder strips is measured using a […] to elicit 50% inhibition of pre-drug contractile activity (IC50 concentration) and is calculated from this concentration-response curve.
As a reminder, the inhibition is the change of the read-out against control, counted positive when it falls. As to `CC(C)(C)Nc1c(NCc2ccc(OC(F)(F)F)cc2)c(=O)c1=O` [Example 3, 3-tert-Butylamino-4-(4-trifluoromethoxy-benzylamino)-cyclobut-3-ene-1,2-dione], the inhibition at 30 µM was determined as 16.2%.
On to `C[C@@H](Nc1c(NCc2ccc(OC(F)(F)F)cc2)c(=O)c1=O)C(C)(C)C` [Example 6, (R)-3-(4-trifluoromethoxy-benzylamino)-4-(1,2,2-trimethyl-propylamino)-cyclobut-3-ene-1,2-dione], for which the inhibition at 30 µM amounted to 20.4%.
In the case of `C[C@@H](Nc1c(NCc2cccc(C(F)(F)F)c2)c(=O)c1=O)C(C)(C)C` [Example 13, (R)-3-(3-trifluoromethyl-benzylamino)-4-(1,2,2-trimethyl-propylamino) cyclobut-3-ene-1,2-dione], the inhibition at 30 µM was 40.1%.
As for `C[C@@H](Nc1c(NCc2cccc(OC(F)(F)F)c2)c(=O)c1=O)C(C)(C)C` [Example 16, (R)-3-(3-trifluoromethoxy-benzylamino)-4-(1,2,2-trimethyl-propylamino)-cyclobut3-ene-1,2-dione], the inhibition at 30 µM came to 10%.

Still in this test, the particulars now being: 0.5 h, 15 mM KCl-enhanced contractions, 30 minute challenge, ± spread.
One may read the IC50 as the concentration that inhibits the measured activity by half. Turning to `C[C@@H](Nc1c(NCc2ccc(F)cc2)c(=O)c1=O)C(C)(C)C` [Example 1, (R)-3-(4-Fluoro-benzylamino)-4-(1,2,2-trimethyl-propylamino)-cyclobut-3-ene-1,2-dione], the IC50 stood at 760 ± 460 nM.
Still for that read-out and setting: the figure for `C[C@@H](Nc1c(NCc2ccc(C(F)(F)F)cc2)c(=O)c1=O)C(C)(C)C` [Example 2, (R)-3-(4-trifluoromethyl-benzylamino)-4-(1,2,2-trimethyl-propylamino)-cyclobut-3-ene-1,2-dione] is 6500 ± 1900 nM; for `CC(C)(C)Nc1c(NCc2ccc(C(F)(F)F)cc2)c(=O)c1=O` [Example 4, 3-tert-Butylamino-4-(4-trifluoromethyl-benzylamino)-cyclobut-3-ene-1,2-dione] it is 6500 ± 870 nM; for `CC(C)(C)Nc1c(NCc2ccc(F)cc2)c(=O)c1=O` [Example 5, 3-tert-Butylamino-4-(4-fluoro-benzylamino)-cyclobut-3-ene-1,2-dione] it is 1500 ± 320 nM.
For the molecule `CCC(C)(C)Nc1c(NCc2ccc(F)cc2)c(=O)c1=O` [Example 7, 3-(1,1-Dimethyl-propylamino)-4-(4-fluoro-benzylamino)-cyclobut-3-ene-1,2 dione], the IC50 amounted to 360 ± 140 nM.
With `CC(C)(C)Nc1c(NCc2cccc(F)c2)c(=O)c1=O` [Example 8, 3-tert-Butylamino-4-(3-fluoro-benzylamino)-cyclobut-3-ene-1,2-dione], the IC50 was 2400 ± 360 nM.
On the same count and under the same terms, the figure for `CC(C)(C)Nc1c(NCc2ccccc2F)c(=O)c1=O` [Example 9, 3-tert-Butylamino-4-(2-fluoro-benzylamino)-cyclobut-3-ene-1,2-dione] is 2080 ± 250 nM; for `CC(C)(C)Nc1c(NCc2cccc(C(F)(F)F)c2)c(=O)c1=O` [Example 10, 3-tert-Butylamino-4-(3-trifluoromethyl-benzylamino)-cyclobut-3-ene-1,2-dione] it is 7900 ± 2700 nM.
For `CC(C)(C)Nc1c(NCc2ccccc2C(F)(F)F)c(=O)c1=O` [Example 11, 3-tert-Butylamino-4-(2-trifluoromethyl-benzylamino)-cyclobut-3-ene-1,2-dione], the IC50 stood at 2300 ± 510 nM.
Still for that read-out and setting: the result for `CC(C)(C)Nc1c(NCc2cccc(OC(F)(F)F)c2)c(=O)c1=O` [Example 12, 3-tert-Butylamino-4-(3-trifluoromethoxy-benzylamino)-cyclobut-3-ene-1,2-dione] reads 13600 ± 3300 nM; that for `C[C@@H](Nc1c(NCc2ccccc2C(F)(F)F)c(=O)c1=O)C(C)(C)C` [Example 14, (R)-3-(2-trifluoromethyl-benzylamino)-4-(1,2,2-trimethyl-propylamino) cyclobut-3-ene-1,2-dione], 20400 ± 7800 nM.
Take `C[C@@H](Nc1c(NCc2ccccc2F)c(=O)c1=O)C(C)(C)C` [Example 15, (R)-3-(2-fluoro-benzylamino)-4-(1,2,2-trimethyl-propylamino) cyclobut-3-ene-1,2-dione]: the IC50 stood at 1230 ± 220 nM.

The next test deals with hypertrophied bladder (detrussor) smooth muscle. Nature of the test: Inhibition of spontaneous contractions in vivo, hypertrophied rat bladder model. Particulars: 3 mg/kg p.o.; 4 animals; conscious rats. Further details: species or system female Sprague-Dawley rat. An excerpt:
In addition, we tested the ability of compounds to inhibit the hyperactivity of hypertrophied bladder (detrussor) smooth muscle in conscious female rats with hypertrophied bladders and thereby alleviate urinary incontinence in rats according to the following protocol described by Malmgren (A. Malmgren, K. E. Andersson, C. Sjogren, P. O. Andersson, Effects of pinacidil and Cromakalim (BRL 34915) on Bladder Function in Rats with Detrusor Instability, J. Urol. 142:1134, 1989.):
Female Sprague-Dawley rats, ranging in weight from 190-210 g are used. Up to 25 animals are prepared each time. After development of bladder hypertrophy 4-8 animals are used per test.
Compounds are dissolved in PEG-200 and administered by gastric gavage or intraveneously in a volume of 5 ml/kg. For primary screening all drugs are administered at the arbitrary dose of 10 mg/kg p.o. to groups of 4 rats.
The animals are anesthetized with halothane. Through a midline incision the bladder and urethra are exposed and a ligature of 4-0 silk is tied around the proximal urethra in the presence of a stainless steel rod (1 mm diameter) to produce a partial occlusion. The rod is then removed. The abdominal region is closed using surgical staples and each rat receives 150,000 units of bicillin C-R. The animals ar allowed six weeks to develop sufficient bladder hypertrophy. After six weeks, the ligature is removed under halothane anesthesia and a catheter (PE 60) with a cuff is placed in the dome of the bladder and secured with a purse string suture. The catheter is tunneled under the skin and exteriorized through an opening in the back of the neck. The abdominal incision is sutured and the free end of the catheter sealed. In order to prevent infections the rats receive an injection of bicillin C-R (150000 units/rat). Two days later the animals are used in cystometrical evaluations. The animals are placed in the metabolic cages and the catheter is attached (using a "T" connector) to a Statham pressure transducer (Model P23Db) and to a Harvard infusion pump. A plastic beaker attached to a force displacement transducer (Grass FT03) is placed under the rat's cage to collect and record urine volume. Animals are allowed 15-30 min to rest before the saline infusion (20 ml/hr for 20 minutes) is started for the first cystometry period. […]
The following urodynamic variables are recorded: […]
The mean value of each variable is calculated before and after compound administration. For each compound the changes in the variables measured are compared to the values obtained before treatment and expressed as percent inhibition. The data are also subjected to 2-way analysis of variance to determine significant (p<0.05) changes in the variable measured. […]
On to `C[C@@H](Nc1c(NCc2ccc(F)cc2)c(=O)c1=O)C(C)(C)C` [Example 1, (R)-3-(4-Fluoro-benzylamino)-4-(1,2,2-trimethyl-propylamino)-cyclobut-3-ene-1,2-dione], for which the “% Ampl: Percent change in the amplitude of spontaneous contractions in the hypertrophied rat bladder model” value is -64 ± 3% and the “% Red (F): Percent reduction in the total number of spontaneous contractions in the hypertrophied rat bladder model” value was found to be 3 ± 25%.
With `CCC(C)(C)Nc1c(NCc2ccc(F)cc2)c(=O)c1=O` [Example 7, 3-(1,1-Dimethyl-propylamino)-4-(4-fluoro-benzylamino)-cyclobut-3-ene-1,2 dione], the “% Ampl: Percent change in the amplitude of spontaneous contractions in the hypertrophied rat bladder model” value was -3 ± 35% and the “% Red (F): Percent reduction in the total number of spontaneous contractions in the hypertrophied rat bladder model” value worked out at 67 ± 2%.
